Read-outs that look alike come from different tables or passages of the source.
How the values were obtained:
[1] = mouse, in vivo
[2] = parameters: species or system rats; conditions: rat, in vivo, sc
[3] = system: T. mentagrophytes, T. rubrum and C. albicans; test: Drug resistance development in vitro by serial passage of fungal cultures; type: cell-based; conditions: serial passage in the presence of sub-growth inhibitory concentrations
Description: Efinaconazole drug resistance development was studied in vitro against T. mentagrophytes, T. rubrum and C. albicans. […] The clinical significance of these in vitro results is unknown.

[4] = system: bacterial; test: Bacterial reverse mutation assay; type: cell-based
[5] = biological target: CYP2C9 (Homo sapiens, UniProt P11712); test: biochemical; type: in vitro ADME
Description: The 2006 Food and Drug Administration Drug Interaction Studies—Study Design, Data Analysis, and Implications for Dosing and Labeling draft guidance recommends clinical evaluation for drugs that are CYP inhibitors if the mean steady state Cmax/Ki is greater than 0.1.

[6] = Pharmacokinetic study in healthy volunteers, topical application to all 10 toenails; type: in vivo, human; conditions: for Cmax: mean +/- SD; for AUC(0-t): read-out: AUC24h
Experimental: In […] patients, efinaconazole 10% solution (IDP-108) was applied topically to all 10 toenails (0.42 mL total daily dose volume) administered as single and then 7 daily doses to 10 healthy volunteers, and once daily for 28 days to 18 severe onychomycosis patients. The efinaconazole 10% solution (0.42 mL/subject) was applied topically in the morning, unoccluded (i.e., without occluding, blocking or covering the nail with, for example, adhesive tape, bandage, dressing, sealant, etc.), by a trained nurse or study technician to all 10 toenails as a single dose (day 1), and seven consecutive daily doses (day 4 through day 10). A volume of 90 μL was applied on each great toenail and 30 μL on each of the remaining 8 toenails. There were no study drug applications on days 2 and 3.
Blood samples were collected at pre-dose, and 1, 2, 4, 6, 8, 10, 12, 16, 24, 28, 32, 36, 48, and 72 hours after dosing on days 1 and 10; and at pre-dose on days 6 and 8. Blood was processed to plasma and stored frozen until analysis.
(§1) Plasma concentrations of efinaconazole and its major metabolite H3 were determined by LC-MS-MS at multiple timepoints. Plasma concentrations of efinaconazole and H3 were determined using a validated LC-MS-MS method. […] The concentration of efinaconazole in plasma was determined at multiple time points over the course of 24-hour periods on days 1, 14, and 28. Plasma concentrations below the lower limit were set to zero for PK analyses. Pharmacokinetic parameters were calculated from individual plasma concentrations, whenever possible, using noncompartmental analysis in WinNonlin (Pharsight, Sunnyvale, Calif., USA), and included Cmax (observed peak drug concentration), Tmax (time at which Cmax occurs), Cmin (observed minimum drug concentration), t1/2 (apparent half-life), and AUC (area under the concentration-time curve).

[7] = system: CHL cell; type: cell-based
[8] = Pharmacokinetic study in severe onychomycosis patients, once daily for 28 days; type: in vivo, human; conditions: for AUC(0-t): read-out: AUC24h; for Cmax: mean +/- SD
Experimental: Systemic absorption of efinaconazole in 18 […] patients with severe onychomycosis was determined after application of IDP-108 (10% efinaconazole) once daily for 28 days to patients' 10 toenails and adjacent skin. Specifically, two single-center, open-label studies in healthy volunteers and severe onychomycosis patients.
A separate single-center, open-label study to evaluate safety and PK of efinaconazole and its H3 metabolite in 20 patients with severe toenail onychomycosis also was conducted. The study enrolled men and women 18-70 years of age who had clinical diagnoses of stable or exacerbating severe DLSO affecting ≥80% of the area of both great toenails. The great toenails had evidence of toenail growth, and at least four toenails other than the great toenails were also affected by onychomycosis. A positive microscopic examination with potassium hydroxide (KOH) for the hyphae associated with dermatophytes was obtained for at least one great toenail at the screening visit.
Efinaconazole 10% solution (0.42 mL/subject) was applied topically, unoccluded, once daily in the morning for 28 days to all 10 toenails by a trained nurse or study technician, including to the toenail folds, toenail bed, hyponychium, and approximately 0.5 cm of skin around the toenail in all directions to ensure they were completely covered.
Blood samples were collected at predose and at 1, 2, 4, 6, 8, 10, 12, 16, and 24 hours postdose on days 1, 14, and 28. Blood was processed to plasma and stored frozen until analysis.
as §1

Chain of CYP2C9 (P11712 whole entry): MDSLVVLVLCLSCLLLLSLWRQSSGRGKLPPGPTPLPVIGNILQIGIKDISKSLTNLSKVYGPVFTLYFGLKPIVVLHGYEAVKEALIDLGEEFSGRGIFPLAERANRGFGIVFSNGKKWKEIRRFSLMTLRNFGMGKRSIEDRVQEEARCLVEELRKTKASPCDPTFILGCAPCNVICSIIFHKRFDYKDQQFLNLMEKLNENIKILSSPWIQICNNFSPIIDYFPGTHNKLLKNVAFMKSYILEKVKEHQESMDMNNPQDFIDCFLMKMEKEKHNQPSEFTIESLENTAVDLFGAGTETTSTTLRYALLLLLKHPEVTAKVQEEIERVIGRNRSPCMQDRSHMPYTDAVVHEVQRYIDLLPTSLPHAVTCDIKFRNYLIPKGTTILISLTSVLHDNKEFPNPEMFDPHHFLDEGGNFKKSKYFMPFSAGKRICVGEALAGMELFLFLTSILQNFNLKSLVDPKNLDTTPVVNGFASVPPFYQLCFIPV

With C=C1CCN([C@H](C)[C@](O)(Cn2cncn2)c2ccc(F)cc2F)CC1 [efinaconazole, (2R,3R)-2-(2,4-difluorophenyl)-3-(4-methylenepiperidin-1-yl)-1-(1H-1,2,4-triazol-1-yl) butan-2-ol] the clastogenicity [1] was “not clastogenic”, the “effect on estrous cycle in females” value ([2]; 5 mg/kg/day) was “did not have effects” and the “effect on estrous cycle in females” value ([2]; 25 mg/kg/day) was “delayed the estrous cycle”. The “increase of the MIC” value [3] was “up to 4 fold”, the mutagenicity [4] was “not mutagenic” and the Ki [5] was 261 nM. For the same compound, the “steady state Cmax/Ki” value [5] was 0.007, the “steady-state reached on Day” value ([6]; fifth topical application, both toenails and back skin) was 8 days and the “Systemic exposure (AUC24h) on day 10 relative to day 1” value ([6]; healthy volunteers) was “approximately 3.6 fold”. It also gave a Cmax ([6]; healthy volunteers, Day 1 (single dose), plasma) of 0.38 ± 0.39 ng/mL, a Cmax ([6]; healthy volunteers, Day 10 (7th daily dose), plasma) of 0.54 ± 0.22 ng/mL and a Cmin ([6]; healthy volunteers, Day 10, mean +/- SD) of 0.47 ± 0.18 ng/mL. The average plasma concentration ([6]; healthy volunteers, stated after the day 10 range) was 0.37 ng/mL, the Cmax ([6]; human, plasma, topical, 0.42 mL/subject, healthy volunteers, Day 1 (single dose), plasma, read-out: Cmax) was 0.382 ng/mL and the AUC(0-t) ([6]; human, plasma, topical, 0.42 mL/subject, healthy volunteers, Day 1, mean +/- SD) was 2.64 ± 2.85 ng·h/mL. The Tmax ([6]; human, plasma, topical, 0.42 mL/subject, healthy volunteers, Day 1, value [range]) was 24 h, the Cmax ([6]; human, plasma, topical, 0.42 mL/subject, healthy volunteers, Day 10 (7th daily dose), plasma, read-out: Cmax) was 0.542 ng/mL and the AUC(0-t) ([6]; human, plasma, topical, 0.42 mL/subject, healthy volunteers, Day 10, mean +/- SD) was 9.48 ± 3.86 ng·h/mL. It also gave a Tmax ([6]; human, plasma, topical, 0.42 mL/subject, healthy volunteers, Day 10, value [range]) of 10 h, a concentration at 1 day ([6]; human, plasma, topical, 0.42 mL/subject, healthy volunteers, day 1, read-out: plasma concentration range) of 0 to 1.11 ng/mL and a concentration at 10 day ([6]; human, plasma, topical, 0.42 mL/subject, healthy volunteers, day 10, read-out: plasma concentration range) of 0.25 to 0.85 ng/mL. For the same compound, the clastogenicity [7] was “not clastogenic”, the “tolerability, drug-related adverse events” value ([8]; both PK studies (healthy volunteers and onychomycosis patients)) was “well tolerated” and the Tmax ([8]; both sexes, human, plasma, topical, 0.42 mL/subject, onychomycosis patients, Day 1) was 23.9 h. The AUC(0-t) ([8]; both sexes, human, plasma, topical, 0.42 mL/subject, onychomycosis patients, Day 1, mean +/- SD) was 1.79 ng·h/mL, the Cmax ([8]; both sexes, human, plasma, topical, 0.42 mL/subject, onychomycosis patients, Day 1, plasma) was 0.23 ± 0.18 ng/mL and the Tmax ([8]; both sexes, human, plasma, topical, 0.42 mL/subject, onychomycosis patients, Day 14) was 4.55 h. It also gave an AUC(0-t) ([8]; both sexes, human, plasma, topical, 0.42 mL/subject, onychomycosis patients, Day 14, mean +/- SD) of 10.9 ± 5.9 ng·h/mL, a Cmax ([8]; both sexes, human, plasma, topical, 0.42 mL/subject, onychomycosis patients, Day 14, plasma) of 0.62 ± 0.23 ng/mL and a Tmax ([8]; both sexes, human, plasma, topical, 0.42 mL/subject, onychomycosis patients, Day 28) of 16 h. The AUC(0-t) ([8]; both sexes, human, plasma, topical, 0.42 mL/subject, onychomycosis patients, Day 28, mean +/- SD) was 12.2 ng·h/mL, the Cmax ([8]; both sexes, human, plasma, topical, 0.42 mL/subject, onychomycosis patients, Day 28, plasma) was 0.67 ng/mL and the concentration at 2 weeks after the last dose ([8]; both sexes, human, plasma, topical, 0.42 mL/subject, onychomycosis patients, detected in several subjects, read-out: mean plasma concentrations two weeks after the last dose) was 0.07 ng/mL. The Cmin ([8]; onychomycosis patients, Day 14, mean +/- SD) was 0.33 ± 0.17 ng/mL and the Cmin ([8]; onychomycosis patients, Day 28, mean +/- SD) was 0.36 ± 0.20 ng/mL.
